Test results reported in US20260232006A1, “EMULSIONS FOR NICOTINE ENCAPSULATION” (NICOVENTURES TRADING LIMITED, priority 2023, published 2026).

Assays:
[1] = cited from earlier work
[2] = in mixture of mono- and diglycerides of capric and caprylic acid (Capmul MCM); 48 h at 30° C.
Description: Samples were blanketed with nitrogen, sonicated for 30 min, then placed in a thermostatic orbital shaker and continuously shaken at 300 rpm for 48 h at 30° C.

Compound: CC(/C=C/C=C(C)/C=C/C(=O)O)=C\C=C\C=C(C)\C=C\C=C(C)\C=C\C(=O)O (stereo in doubt) [norbixin, (2E,4E,6E,8E,10E,12E,14E,16E,18E)-4,8,13,17-tetramethylicosa-2,4,6,8,10,12,14,16,18-nonaenedioic acid]
- solubility in water [1]: water-soluble

Compound: COC(=O)/C=C/C(C)=C\C=C\C(C)=C\C=C\C=C(C)\C=C\C=C(C)\C=C\C(=O)O [bixin, (2E,4E,6E,8E,10E,12E,14E,16Z,18E)-20-methoxy-4,8,13,17-tetramethyl-20-oxoicosa-2,4,6,8,10,12,14,16,18-nonaenoic acid]
- solubility in fats and alcohols [1]: soluble
- solubility in water [1]: insoluble
- chemical stability ([1]; isolated, isomerizes to trans-bixin): chemically unstable when isolated

Compound: CN1CCCC1c1cccnc1.O=C(O)c1ccccc1 (centres unmarked) [nicotine benzoate]
- highest nicotine benzoate solubility in oil without sedimentation [2]: 30 % by weight
